Values quoted from earlier work as cited in publication PMC7604311, “Caprine Bactenecins as Promising Tools for Developing New Antimicrobial and Antitumor Drugs” (Frontiers in Cellular and Infection Microbiology, 2020).

Experiments:
Set-up in all cases: key to Susceptibility category: R – resistant; I – intermediate; S – susceptible
Details in all cases: initial susceptibility testing of the clinical isolate; ref supplying institutions; cited from earlier work
[1] = system: A. baumannii 7226/16
From the text: page 1: Supplementary Material Supplementary Table 1. Susceptibility profiles of tested clinical isolates of bacteria. Gram-negative: Gram-positive: antibiotic E. coli A. baumannii P. aeruginosa K. pneumoniae antibiotic S. aureus ESBL 521/17 7226/16 MDR 522/17 ESBL 344/17 1399/17 AMP* R [≥32] R [≥32 ] R [≥32 ] R [≥32] AMP* R [≥32 ] AMC R [16] - - S [≤2] AMC - CTX R [≥64] - - S [≤1] AMX - CAZ R [≥64] - R [≥64] S [≤1] AZM R [≥4] FEP R [≥64] - R [≥64] S [≤1] VAN S [≤2] ATM R [≥64] - - S [≤1] DOX I [2] IPM S [≤1] R [≥16] I [8] S [≤1] CLI I [2] MEM S [≤0.25 ] R [≥32 ] R [≥16] S [≤0.25] MEM I [4] AM ...

[2] = system: S. aureus 1399/17
[3] = system: E. coli ESBL 521/17
[4] = system: P. aeruginosa MDR 522/17
[5] = system: K. pneumoniae ESBL 344/17;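 further: each antibiotic is scored as S (susceptible), I (intermediate) or R (resistant), with its MIC listed alongside, in a susceptibility profile of the clinical isolate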

NCC[C@H](O)C(=O)N[C@@H]1C[C@H](N)[C@@H](O[C@H]2O[C@H](CN)[C@@H](O)[C@H](O)[C@H]2O)[C@H](O)[C@H]1O[C@H]1O[C@H](CO)[C@@H](O)[C@H](N)[C@H]1O [AMK, amikacin]
MIC of antibiotic [1]: 8 µg/mL | Susceptibility category [1]: I | MIC of antibiotic [2]: ≥ 64 µg/mL | Susceptibility category [2]: R | MIC of antibiotic [3]: 16 µg/mL | Susceptibility category [3]: I | MIC of antibiotic [4]: 4 µg/mL | Susceptibility category [4]: I | MIC of antibiotic [5]: ≤ 2 µg/mL | Susceptibility category [5]: S

CC1(C)S[C@@H]2[C@H](NC(=O)[C@H](N)c3ccccc3)C(=O)N2[C@H]1C(=O)O [AMP*, ampicillin]
MIC of antibiotic [1]: ≥ 32 µg/mL | Susceptibility category [1]: R | MIC of antibiotic [2]: ≥ 32 µg/mL | Susceptibility category [2]: R | MIC of antibiotic [3]: ≥ 32 µg/mL | Susceptibility category [3]: R | MIC of antibiotic [4]: ≥ 32 µg/mL | Susceptibility category [4]: R | MIC of antibiotic [5]: ≥ 32 µg/mL | Susceptibility category [5]: R

C[C@H]1[C@H](NC(=O)/C(=N\OC(C)(C)C(=O)O)c2csc(N)n2)C(=O)N1S(=O)(=O)O [ATM, aztreonam]
MIC of antibiotic [3]: ≥ 64 µg/mL | Susceptibility category [3]: R | MIC of antibiotic [5]: ≤ 1 µg/mL | Susceptibility category [5]: S

CC[C@H]1OC(=O)[C@H](C)[C@@H](O[C@H]2C[C@@](C)(OC)[C@@H](O)[C@H](C)O2)[C@H](C)[C@@H](O[C@@H]2O[C@H](C)C[C@H](N(C)C)[C@H]2O)[C@](C)(O)C[C@@H](C)CN(C)[C@H](C)[C@@H](O)[C@]1(C)O [AZM, azithromycin]
MIC of antibiotic [2]: ≥ 4 µg/mL | Susceptibility category [2]: R

CC(C)(O/N=C(\C(=O)N[C@@H]1C(=O)N2C(C(=O)[O-])=C(C[n+]3ccccc3)CS[C@H]12)c1csc(N)n1)C(=O)O [CAZ, ceftazidime]
MIC of antibiotic [3]: ≥ 64 µg/mL | Susceptibility category [3]: R | MIC of antibiotic [4]: ≥ 64 µg/mL | Susceptibility category [4]: R | MIC of antibiotic [5]: ≤ 1 µg/mL | Susceptibility category [5]: S

CCC[C@@H]1C[C@@H](C(=O)N[C@@H]([C@H]2O[C@H](SC)[C@H](O)[C@@H](O)[C@H]2O)[C@H](C)Cl)N(C)C1 [CLI, clindamycin]
MIC of antibiotic [2]: 2 µg/mL | Susceptibility category [2]: I

CO/N=C(\C(=O)N[C@@H]1C(=O)N2C(C(=O)O)=C(COC(C)=O)CS[C@H]12)c1csc(N)n1 [CTX, cefotaxime]
MIC of antibiotic [3]: ≥ 64 µg/mL | Susceptibility category [3]: R | MIC of antibiotic [5]: ≤ 1 µg/mL | Susceptibility category [5]: S

C[C@H]1c2cccc(O)c2C(=O)C2=C(O)[C@]3(O)C(=O)C(C(N)=O)=C(O)[C@@H](N(C)C)[C@@H]3[C@@H](O)[C@@H]21 [DOX, doxycycline]
MIC of antibiotic [2]: 2 µg/mL | Susceptibility category [2]: I

CC[C@H]1OC(=O)[C@H](C)[C@@H](O[C@H]2C[C@@](C)(OC)[C@@H](O)[C@H](C)O2)[C@H](C)[C@@H](O[C@@H]2O[C@H](C)C[C@H](N(C)C)[C@H]2O)[C@](C)(O)C[C@@H](C)C(=O)[C@H](C)[C@@H](O)[C@]1(C)O [ERY, erythromycin]
MIC of antibiotic [1]: ≥ 32 µg/mL | Susceptibility category [1]: R | MIC of antibiotic [2]: ≥ 32 µg/mL | Susceptibility category [2]: R | MIC of antibiotic [3]: ≥ 32 µg/mL | Susceptibility category [3]: R | MIC of antibiotic [4]: ≥ 32 µg/mL | Susceptibility category [4]: R | MIC of antibiotic [5]: ≥ 32 µg/mL | Susceptibility category [5]: R

CO/N=C(\C(=O)N[C@@H]1C(=O)N2C(C(=O)[O-])=C(C[N+]3(C)CCCC3)CS[C@H]12)c1csc(N)n1 [FEP, cefepime]
MIC of antibiotic [3]: ≥ 64 µg/mL | Susceptibility category [3]: R | MIC of antibiotic [4]: ≥ 64 µg/mL | Susceptibility category [4]: R | MIC of antibiotic [5]: ≤ 1 µg/mL | Susceptibility category [5]: S

C[C@@H]1O[C@@H]1P(=O)(O)O [FOF, fosfomycin]
MIC of antibiotic [3]: ≤ 16 µg/mL | Susceptibility category [3]: S | MIC of antibiotic [5]: ≤ 16 µg/mL | Susceptibility category [5]: S

CNC(C)C1CCC(N)C(OC2C(N)CC(N)C(OC3OCC(C)(O)C(NC)C3O)C2O)O1 (stereo not drawn) [GEN, gentamicin]
MIC of antibiotic [1]: ≥ 16 µg/mL | Susceptibility category [1]: R | MIC of antibiotic [2]: ≥ 32 µg/mL | Susceptibility category [2]: R | MIC of antibiotic [3]: ≤ 1 µg/mL | Susceptibility category [3]: S | MIC of antibiotic [4]: ≥ 16 µg/mL | Susceptibility category [4]: R | MIC of antibiotic [5]: ≤ 1 µg/mL | Susceptibility category [5]: S

C[C@@H](O)[C@H]1C(=O)N2C(C(=O)O)=C(SCCN=CN)C[C@H]12 [IPM, imipenem]
MIC of antibiotic [1]: ≥ 16 µg/mL | Susceptibility category [1]: R | MIC of antibiotic [3]: ≤ 1 µg/mL | Susceptibility category [3]: S | MIC of antibiotic [4]: 8 µg/mL | Susceptibility category [4]: I | MIC of antibiotic [5]: ≤ 1 µg/mL | Susceptibility category [5]: S

C[C@H]1COc2c(N3CCN(C)CC3)c(F)cc3c(=O)c(C(=O)O)cn1c23 [LVX, levofloxacin]
MIC of antibiotic [2]: ≤ 1 µg/mL | Susceptibility category [2]: S

C[C@@H](O)[C@H]1C(=O)N2C(C(=O)O)=C(S[C@@H]3CN[C@H](C(=O)N(C)C)C3)[C@H](C)[C@H]12 [MEM, meropenem]
MIC of antibiotic [1]: ≥ 32 µg/mL | Susceptibility category [1]: R | MIC of antibiotic [2]: 4 µg/mL | Susceptibility category [2]: I | MIC of antibiotic [3]: ≤ 0.25 µg/mL | Susceptibility category [3]: S | MIC of antibiotic [4]: ≥ 16 µg/mL | Susceptibility category [4]: R | MIC of antibiotic [5]: ≤ 0.25 µg/mL | Susceptibility category [5]: S

CCN[C@@H]1C[C@H](N)[C@@H](O[C@H]2OC(CN)=CC[C@H]2N)[C@H](O)[C@H]1O[C@H]1OC[C@](C)(O)[C@H](NC)[C@H]1O [NET, netilmicin]
MIC of antibiotic [3]: 8 µg/mL | Susceptibility category [3]: R | MIC of antibiotic [4]: ≥ 32 µg/mL | Susceptibility category [4]: R | MIC of antibiotic [5]: ≤ 1 µg/mL | Susceptibility category [5]: S

O=C1CN(/N=C/c2ccc([N+](=O)[O-])o2)C(=O)N1 [NIT, nitrofurantoin]
MIC of antibiotic [3]: 128 µg/mL | Susceptibility category [3]: R

CC1COc2c(N3CCN(C)CC3)c(F)cc3c(=O)c(C(=O)O)cn1c23 (stereo not drawn) [OFL, ofloxacin]
MIC of antibiotic [2]: ≥ 32 µg/mL | Susceptibility category [2]: R

Cc1onc(-c2ccccc2)c1C(=O)N[C@@H]1C(=O)N2[C@@H]1SC(C)(C)[C@@H]2C(=O)O [OX, oxacillin]
MIC of antibiotic [2]: ≥ 32 µg/mL | Susceptibility category [2]: R

CC[C@H]1OC(=O)[C@H](C)[C@@H](O[C@H]2C[C@@](C)(OC)[C@@H](O)[C@H](C)O2)[C@H](C)[C@@H](O[C@@H]2O[C@H](C)C[C@H](N(C)C)[C@H]2O)[C@](C)(O)C[C@@H](C)/C(=N\OCOCCOC)[C@H](C)[C@@H](O)[C@]1(C)O [RXM, roxithromycin]
MIC of antibiotic [2]: 2 µg/mL | Susceptibility category [2]: I

CN(C)c1cc(NC(=O)CNC(C)(C)C)c(O)c2c1C[C@H]1C[C@H]3[C@H](N(C)C)C(O)=C(C(N)=O)C(=O)[C@@]3(O)C(O)=C1C2=O [TGC, tigecycline]
MIC of antibiotic [1]: 4 µg/mL | Susceptibility category [1]: I

CN[C@H](CC(C)C)C(=O)N[C@H]1C(=O)N[C@@H](CC(N)=O)C(=O)N[C@H]2C(=O)N[C@H]3C(=O)N[C@H](C(=O)N[C@H](C(=O)O)c4cc(O)cc(O)c4-c4cc3ccc4O)[C@H](O)c3ccc(c(Cl)c3)Oc3cc2cc(c3O[C@@H]2O[C@H](CO)[C@@H](O)[C@H](O)[C@H]2O[C@H]2C[C@](C)(N)[C@H](O)[C@H](C)O2)Oc2ccc(cc2Cl)[C@H]1O [VAN, vancomycin]
MIC of antibiotic [2]: ≤ 2 µg/mL | Susceptibility category [2]: S

amoxicillin–clavulanic acid [AMC]
MIC of antibiotic [3]: 16 µg/mL | Susceptibility category [3]: R | MIC of antibiotic [5]: ≤ 2 µg/mL | Susceptibility category [5]: S

ampicillin-sulbactam [SAM]
MIC of antibiotic [1]: 16 µg/mL | Susceptibility category [1]: I

colistin [CST]
MIC of antibiotic [3]: ≤ 0.5 µg/mL | Susceptibility category [3]: S | MIC of antibiotic [4]: ≥ 16 µg/mL | Susceptibility category [4]: R | MIC of antibiotic [5]: ≤ 0.5 µg/mL | Susceptibility category [5]: S

trimethoprim–sulfamethoxazole [SXT]
MIC of antibiotic [1]: ≥ 320 µg/mL | Susceptibility category [1]: R | MIC of antibiotic [3]: ≥ 320 µg/mL | Susceptibility category [3]: R | MIC of antibiotic [5]: ≤ 20 µg/mL | Susceptibility category [5]: S
